In patent US11484601B2, “Targeting M2-like tumor-associated macrophages by using melittin-based proapoptotic peptide” (TWI[…]., priority 2018, dated 2022):

Key:
[1] = tested on: RAW264.7 cells differentiated into M2 cells; test: XF24 Extracellular Flux metabolic measurement (OCR, ECAR); type: cell-based, mouse; details: 1 μM peptide, compared to PBS-treated group
Procedure: […] assay was performed to measure the effect of MEL-dKLA on the metabolic action of mitochondria.
More specifically, the metabolic action was measured using an XF24 Extracellular Flux analyzer (Agilent, CA, USA). RAW264.7 cells were differentiated into M2 cells which were inoculated into XF-24 plates (3×10^4 cells/well). The next day, in order to minimize the potential stress due to changes in the situation, 1 μM of each peptide was applied thereto. Then, the cells were incubated in a 37° C. incubator under 5% CO2 condition. […] Then, the oxygen consumption rate (OCR) and the extracellular acidification rate (ECAR) were measured in real time.
Further, OCR was measured at a time point corresponding to 12 times. The basal state was measured at a time point corresponding to 3 times. Then, ATP-connected respiration after oligomycin addition was measured at a time point corresponding to further 3 times. Then, the maximum respiration after FCCP addition was measured at a time point corresponding to further 3 times. Then, a point at which non-mitochondrial respiration occurred after addition of Rot/AA was measured at a time point corresponding to remaining 3 times. Thus, the mitochondria respiration ability was measured. ECAR indicating the glycolysis rate was measured at the same time points.

LLC tumor cells = test: LLC lung cancer tumor model in C57BL/6 mice; type: in vivo, mouse; details: 175 nmol/kg intraperitoneally
Procedure: More specifically, C57BL/6 wild-type mice were purchased from DBL (Korea). LLC tumor cells were mixed with Matrigel (Corning, NY, USA) and then the mixture was injected into the right flank of mice (5×10^4 cells/mouse). Five days after tumor cell injection, the recombinant dKLA, MEL, and MEL-dKLA peptides were injected intraperitoneally thereto for 3 days for a total of three times (175 nmol/kg dosage/weight per each time). All tumor tissues were harvested 12 days after the injection. The animal experiment was approved by the Animal Management Committee of Kyunghee University [KHUASP(SE)-17-087]. The animals were managed via autonomous feeding of water and food under a 12-hour light/dark cycle environment without pathogens.

[2] = tested on: 4T1-luciferase breast cancer cells; test: 4T1-luciferase breast cancer in mammary gland of NOD-SCID mice; type: in vivo, mouse; details: 175 nmol/kg once every 3 days; for luminescence level at the metastasis site / metastasis area (lymph nodes of the armpit and lungs): 4 weeks; for growth of breast cancer cells in mammary gland: NOD-SCID mice
Procedure: More specifically, to identify the effect of MEL-dKLA on tumor growth and metastasis when breast cancer cells were […] into the breast, 4T1-luciferase breast cancer cells (1×10^5) were injected into NOD-SCID mice as immunodeficient mice. From the time point when the tumor mass began to grow in the mammary gland No. 4 on 5 days after the injection, 175 nmol/kg of each of PBS, dKLA, MEL and MEL-dKLA was injected into each group once every 3 days. To measure the growth of the tumor, the size of the tumor was measured once every 3 days using a caliper device, and all tumor tissues were collected 4 weeks after the injection. On 4 weeks after the tumor transplantation, in order to identify metastasis of the tumor to the lymph nodes and lungs, D-luciferin as a substrate of luciferase enzyme was diluted to a concentration of 40 mg/ml and then, 100 μl thereof was administered to mice in an intraperitoneal administration mode. After reacting for about 15 minutes, luminescence was measured using NightOwl (Berthold Technologies) as an in vivo imaging device. Then, we analyzed the luminescence with pictures of mice to identify the level of metastasis to the whole body and lungs. The animal experiment was approved by the Animal Management Committee of Kyunghee University [KHUASP(SE)-18-133], and the animals were managed via autonomous feeding of water and food under a 12-hour light/dark cycle environment without pathogens.

Ym1 = test: Quantitative real-time PCR of lung tissue, Ym1; type: in vivo, mouse; details: vs PBS-treated group
Procedure: (§1) To measure the ability of MEL-dKLA to inhibit tumor metastasis, expression levels of CD44 known to interact with extracellular matrix ligand to promote metastasis and invasion and thus to be widely expressed in cancer, CCL22 known as M2-type macrophage marker, HIF-1α known as a marker of angiogenesis, metastasis and invasion, Ym1 as a marker of M2-type macrophage, and MMP-9 involved in the migration and settlement of tumor cells were measured via quantitative real-time PCR.
(§2) More specifically, RNA was extracted from lung tissue using an easy-BLUE RNA extraction kit (iNtRON Biotechnology, Korea). Then, cDNA was synthesized according to the manual for cyclescript reverse transcriptase (Bioneer, Korea). cDNA synthesis conditions were as follows: 15 seconds at 95, 10 seconds at 55, and 10 seconds at 72. Each reaction was conducted 3 times. […] Quantitative real-time PCR was performed using the SensiFAST SYBR no-Rox kit (Bioline, Korea).

MMP-9 = test: Quantitative real-time PCR of lung tissue, MMP-9; type: in vivo, mouse
Procedure: as §1, §2

Molecule	basal respiration (baseline OCR) [1]	tumor size (LLC tumor cells)	luminescence level at the metastasis site [2]	metastasis area (lymph nodes of the armpit and lungs) [2]	growth of breast cancer cells in mammary gland [2]	expression of Ym1 (Ym1)	expression of MMP-9 (MMP-9)	tumor growth (LLC tumor cells; three times, compared to PBS control)
CC[C@H](C)[C@H](NC(=O)CN)C(=O)NCC(=O)N[C@@H](C)C(=O)N[C@H](C(=O)N[C@@H](CC(C)C)C(=O)N[C@@H](CCCCN)C(=O)N[C@H](C(=O)N[C@@H](CC(C)C)C(=O)N[C@H](C(=O)N[C@H](C(=O)NCC(=O)N[C@@H](CC(C)C)C(=O)N1CCC[C@H]1C(=O)N[C@@H](C)C(=O)N[C@@H](CC(C)C)C(=O)N[C@H](C(=O)N[C@@H](CO)C(=O)N[C@@H](Cc1c[nH]c2ccccc12)C(=O)N[C@H](C(=O)N[C@@H](CCCCN)C(=O)N[C@@H](CCCNC(=N)N)C(=O)N[C@@H](CCCCN)C(=O)N[C@@H](CCCNC(=N)N)C(=O)N[C@@H](CCC(N)=O)C(=O)N[C@@H](CCC(N)=O)C(N)=O)[C@@H](C)CC)[C@@H](C)CC)[C@@H](C)O)[C@@H](C)O)C(C)C)C(C)C [MEL]	no change in baseline OCR	significantly reduced	exhibited a tendency to decrease but did not exhibit significance	no significant difference from the PBS-treated group	did not occur significantly	no significant difference	lower compared to that in the PBS-treated group	
d[KLAKLAKKLAKLAK] (D-amino acids) [dKLA, pro-apoptotic peptide KLA, used as control]	no change in baseline OCR		exhibited a tendency to decrease but did not exhibit significance	no significant difference from the PBS-treated group	did not occur significantly	increased significantly	high	tumor steadily grew
